PubChem BioAssay AID1845213 (Molecular Pharmacology Branch, DTP, NCI, 2023)
Active and inactive are the calls of the source. Rule for the calls: active = viability on the fitted dose curve at most 10% of control; inactive = the rest.

Test system: NCI-H841 complex tumor spheroid viability
Assay: Anticancer human tumor NCI-H841 cell line growth inhibition;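 for IC50: spheroids exposed to compounds for 7 days before readout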;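 for viability, T/C: spheroids exposed to compounds for 7 days before readout; 100% = DMSO vehicle control wells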
Details: for IC50: curve of first compound; for viability, T/C: stronger effect = lower value
In short: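 Complex tumor spheroids combined malignant cells with endothelial cells and mesenchymal stem cells. DNA-damaging drugs and DNA repair inhibitors were tested alone and in combination, at half-log dilutions down from clinical Cmax (top 10 microM if Cmax unknown), 0.25% DMSO final.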

[1] = second compound 30 pM, first compound 0.0316 µM
[2] = second compound 30 pM, first compound 0.1 µM
[3] = second compound 30 pM, first compound 0.316 µM
[4] = second compound 30 pM, first compound 1 µM
[5] = second compound 30 pM, first compound 3.16 µM
[6] = second compound 30 pM, first compound 10 µM
[7] = second compound 94.9 pM, first compound 0.0316 µM
[8] = second compound 94.9 pM, first compound 0.1 µM
[9] = second compound 94.9 pM, first compound 0.316 µM
[10] = second compound 94.9 pM, first compound 1 µM
[11] = second compound 94.9 pM, first compound 3.16 µM
[12] = second compound 94.9 pM, first compound 10 µM
[13] = second compound 0.0003 µM, first compound 0.0316 µM
[14] = second compound 0.0003 µM, first compound 0.1 µM
[15] = second compound 0.0003 µM, first compound 0.316 µM
[16] = second compound 0.0003 µM, first compound 1 µM
[17] = second compound 0.0003 µM, first compound 3.16 µM
[18] = second compound 0.0003 µM, first compound 10 µM
[19] = second compound 0.000949 µM, first compound 0.0316 µM
[20] = second compound 0.000949 µM, first compound 0.1 µM
[21] = second compound 0.000949 µM, first compound 0.316 µM
[22] = second compound 0.000949 µM, first compound 1 µM
[23] = second compound 0.000949 µM, first compound 3.16 µM
[24] = second compound 0.000949 µM, first compound 10 µM
[25] = second compound 0.003 µM, first compound 0.0316 µM
[26] = second compound 0.003 µM, first compound 0.1 µM
[27] = second compound 0.003 µM, first compound 0.316 µM
[28] = second compound 0.003 µM, first compound 1 µM
[29] = second compound 0.003 µM, first compound 3.16 µM
[30] = second compound 0.003 µM, first compound 10 µM
[31] = second compound 1 µM, first compound 0.00949 µM
[32] = second compound 1 µM, first compound 0.03 µM
[33] = second compound 1 µM, first compound 0.0949 µM
[34] = second compound 1 µM, first compound 0.3 µM
[35] = second compound 1 µM, first compound 0.949 µM
[36] = second compound 1 µM, first compound 3 µM
[37] = second compound 3.16 µM, first compound 0.00949 µM
[38] = second compound 3.16 µM, first compound 0.03 µM
[39] = second compound 3.16 µM, first compound 0.0949 µM
[40] = second compound 3.16 µM, first compound 0.3 µM
[41] = second compound 3.16 µM, first compound 0.949 µM
[42] = second compound 3.16 µM, first compound 3 µM
[43] = second compound 10 µM, first compound 0.00949 µM
[44] = second compound 10 µM, first compound 0.03 µM
[45] = second compound 10 µM, first compound 0.0949 µM
[46] = second compound 10 µM, first compound 0.3 µM
[47] = second compound 10 µM, first compound 0.949 µM
[48] = second compound 10 µM, first compound 3 µM
[49] = second compound 31.6 µM, first compound 0.00949 µM
[50] = second compound 31.6 µM, first compound 0.03 µM
[51] = second compound 31.6 µM, first compound 0.0949 µM
[52] = second compound 31.6 µM, first compound 0.3 µM
[53] = second compound 31.6 µM, first compound 0.949 µM
[54] = second compound 31.6 µM, first compound 3 µM
[55] = second compound 100 µM, first compound 0.00949 µM
[56] = second compound 100 µM, first compound 0.03 µM
[57] = second compound 100 µM, first compound 0.0949 µM
[58] = second compound 100 µM, first compound 0.3 µM
[59] = second compound 100 µM, first compound 0.949 µM
[60] = second compound 100 µM, first compound 3 µM

SMILES: CC(C)n1c(=O)n(C)c2cnc3cc(F)c(-c4ccc(OCCCN5CCCCC5)nc4)cc3c21 + COc1cc2c(cc1O)CCNC21CSC2c3c(OC(C)=O)c(C)c4c(c3C(COC1=O)N1C(O)C3Cc5cc(C)c(OC)c(O)c5C(C21)N3C)OCO4
- IC50 (second compound 30 pM): > 10000 nM
- IC50 (second compound 94.9 pM): < 31.6 nM
- IC50 (second compound 0.0003 µM): < 31.6 nM
- IC50 (second compound 0.000949 µM): < 31.6 nM
- IC50 (second compound 0.003 µM): < 31.6 nM
- viability, T/C [1]: 83.8%
- viability, T/C [2]: 79.7%
- viability, T/C [3]: 78.9%
- viability, T/C [4]: 79.1%
- viability, T/C [5]: 79.1%
- viability, T/C [6]: 69.5%
- viability, T/C [7]: 40.4%
- viability, T/C [8]: 34.5%
- viability, T/C [9]: 32%
- viability, T/C [10]: 25.9%
- viability, T/C [11]: 26.2%
- viability, T/C [12]: 18%
- viability, T/C [13]: 3.09%
- viability, T/C [14]: 3.02%
- viability, T/C [15]: 2.66%
- viability, T/C [16]: 2.5%
- viability, T/C [17]: 2.79%
- viability, T/C [18]: 2%
- viability, T/C [19]: 2.82%
- viability, T/C [20]: 3.14%
- viability, T/C [21]: 3.38%
- viability, T/C [22]: 2.32%
- viability, T/C [23]: 2.06%
- viability, T/C [24]: 1.47%
- viability, T/C [25]: 0.11%
- viability, T/C [26]: 0.12%
- viability, T/C [27]: 0.11%
- viability, T/C [28]: 0.1%
- viability, T/C [29]: 0.1%
- viability, T/C [30]: 0.15%

SMILES: COc1ccc([C@@H](O)c2cc(-c3ncnc4cc(N5CCOCC5)ccc34)c(F)cc2Cl)nn1 + COc1cc2c(cc1O)CCNC21CSC2c3c(OC(C)=O)c(C)c4c(c3C(COC1=O)N1C(O)C3Cc5cc(C)c(OC)c(O)c5C(C21)N3C)OCO4
- IC50 (second compound 30 pM): 2950 nM
- IC50 (second compound 94.9 pM): 1040 nM
- IC50 (second compound 0.0003 µM): < 31.6 nM
- IC50 (second compound 0.000949 µM): < 31.6 nM
- IC50 (second compound 0.003 µM): < 31.6 nM
- viability, T/C [1]: 102%
- viability, T/C [2]: 99.6%
- viability, T/C [3]: 96%
- viability, T/C [4]: 86.7%
- viability, T/C [5]: 47.5%
- viability, T/C [6]: 4.01%
- viability, T/C [7]: 99.4%
- viability, T/C [8]: 94.5%
- viability, T/C [9]: 86.4%
- viability, T/C [10]: 50.3%
- viability, T/C [11]: 16.4%
- viability, T/C [12]: 1.62%
- viability, T/C [13]: 31.4%
- viability, T/C [14]: 34.4%
- viability, T/C [15]: 16.9%
- viability, T/C [16]: 4.22%
- viability, T/C [17]: 0.62%
- viability, T/C [18]: 0.12%
- viability, T/C [19]: 2.69%
- viability, T/C [20]: 2.87%
- viability, T/C [21]: 1.76%
- viability, T/C [22]: 0.09%
- viability, T/C [23]: 0.02%
- viability, T/C [24]: 0.14%
- viability, T/C [25]: 0.13%
- viability, T/C [26]: 0.12%
- viability, T/C [27]: 0.14%
- viability, T/C [28]: 0.16%
- viability, T/C [29]: 0.19%
- viability, T/C [30]: 0.27%

SMILES: CNCc1ccc(-c2cc(-c3nc(-c4ccc(S(=O)(=O)C(C)C)cc4)cnc3N)on2)cc1 + Cn1nnc2c(C(N)=O)ncn2c1=O
- IC50 (second compound 1 µM): 63 nM
- IC50 (second compound 3.16 µM): 63.5 nM
- IC50 (second compound 10 µM): 177 nM
- IC50 (second compound 31.6 µM): 88 nM
- IC50 (second compound 100 µM): 49.8 nM
- viability, T/C [31]: 96.3%
- viability, T/C [32]: 94.5%
- viability, T/C [33]: 25.5%
- viability, T/C [34]: 33.9%
- viability, T/C [35]: 4.57%
- viability, T/C [36]: 1.05%
- viability, T/C [37]: 97.7%
- viability, T/C [38]: 74.5%
- viability, T/C [39]: 33%
- viability, T/C [40]: 21.8%
- viability, T/C [41]: 3.41%
- viability, T/C [42]: 0.87%
- viability, T/C [43]: 101%
- viability, T/C [44]: 99.2%
- viability, T/C [45]: 89.8%
- viability, T/C [46]: 16.2%
- viability, T/C [47]: 2.29%
- viability, T/C [48]: 5.12%
- viability, T/C [49]: 97.5%
- viability, T/C [50]: 96.3%
- viability, T/C [51]: 45%
- viability, T/C [52]: 17.2%
- viability, T/C [53]: 1.91%
- viability, T/C [54]: 7.45%
- viability, T/C [55]: 92.9%
- viability, T/C [56]: 48%
- viability, T/C [57]: 58.3%
- viability, T/C [58]: 5.09%
- viability, T/C [59]: 8.18%
- viability, T/C [60]: 0.32%

SMILES: Cn1ncnc1[C@H]1c2n[nH]c(=O)c3cc(F)cc(c23)N[C@@H]1c1ccc(F)cc1 + Cn1nnc2c(C(N)=O)ncn2c1=O
- IC50 (second compound 1 µM): 369 nM
- IC50 (second compound 3.16 µM): 18.6 nM
- IC50 (second compound 10 µM): < 9.49 nM
- IC50 (second compound 31.6 µM): < 9.49 nM
- IC50 (second compound 100 µM): < 9.49 nM
- viability, T/C [31]: 89.2%
- viability, T/C [32]: 86.4%
- viability, T/C [33]: 78.1%
- viability, T/C [34]: 60.3%
- viability, T/C [35]: 4.54%
- viability, T/C [36]: 2.08%
- viability, T/C [37]: 90.5%
- viability, T/C [38]: 9.92%
- viability, T/C [39]: 42.8%
- viability, T/C [40]: 42.2%
- viability, T/C [41]: 6.61%
- viability, T/C [42]: 5.73%
- viability, T/C [43]: 25.7%
- viability, T/C [44]: 54.8%
- viability, T/C [45]: 9.14%
- viability, T/C [46]: 11.2%
- viability, T/C [47]: 6.05%
- viability, T/C [48]: 2.46%
- viability, T/C [49]: 13.9%
- viability, T/C [50]: 6.84%
- viability, T/C [51]: 3.57%
- viability, T/C [52]: 2.41%
- viability, T/C [53]: 2.88%
- viability, T/C [54]: 3.21%
- viability, T/C [55]: 3.08%
- viability, T/C [56]: 2.93%
- viability, T/C [57]: 3.16%
- viability, T/C [58]: 3.31%
- viability, T/C [59]: 8.92%
- viability, T/C [60]: 3.58%

SMILES: O=C(c1cc(Cc2n[nH]c(=O)c3ccccc23)ccc1F)N1CCN(C(=O)C2CC2)CC1 + Cn1nnc2c(C(N)=O)ncn2c1=O
- IC50 (second compound 1 µM): 5820 nM
- IC50 (second compound 3.16 µM): 4960 nM
- IC50 (second compound 10 µM): 131 nM
- IC50 (second compound 31.6 µM): 490 nM
- IC50 (second compound 100 µM): < 94.9 nM
- viability, T/C [33]: 96.6%
- viability, T/C [34]: 99.7%
- viability, T/C [35]: 87.6%
- outcome [36]: inactive
- viability, T/C (second compound 1 µM, first compound 9.49 µM): 36.1%
- viability, T/C (second compound 1 µM, first compound 30 µM): 7.71%
- viability, T/C [39]: 104%
- viability, T/C [40]: 99.6%
- viability, T/C [41]: 95.3%
- viability, T/C [42]: 77.5%
- viability, T/C (second compound 3.16 µM, first compound 9.49 µM): 14.7%
- viability, T/C (second compound 3.16 µM, first compound 30 µM): 7.81%
- outcome [45]: inactive
- outcome [46]: inactive
- viability, T/C [47]: 45.5%
- viability, T/C [48]: 9.01%
- viability, T/C (second compound 10 µM, first compound 9.49 µM): 6.29%
- viability, T/C (second compound 10 µM, first compound 30 µM): 3.58%
- viability, T/C [51]: 90.2%
- viability, T/C [52]: 83.1%
- viability, T/C [53]: 4.8%
- viability, T/C [54]: 9.51%
- viability, T/C (second compound 31.6 µM, first compound 9.49 µM): 3.15%
- viability, T/C (second compound 31.6 µM, first compound 30 µM): 4.15%
- viability, T/C [57]: 17.8%
- viability, T/C [58]: 15%
- viability, T/C [59]: 4.23%
- viability, T/C [60]: 5.1%
- viability, T/C (second compound 100 µM, first compound 9.49 µM): 3.82%
- viability, T/C (second compound 100 µM, first compound 30 µM): 5.19%
